Legend:
[1] = cited from earlier work
[2] = characteristic curvature (Cc), HLD framework; assay type: physicochemical; conditions: obtained following procedure of Nouraei et al. (WO 2022/140843)

SMILES | water solubility [1] [wt %] | characteristic curvature (Cc) [2]
C=CCc1ccc(O)c(OC)c1 [Eugenol, eugenol] | 0.14 | –
CCCCCc1cc(O)c2c(c1)OC(C)(C)[C@@H]1CCC(C)=C[C@@H]21 [THC, tetrahydrocannabinol] | – | +2.7
C=C(C)[C@@H]1CCC(C)=C[C@H]1c1c(O)cc(CCCCC)cc1O [CBD, cannabidiol] | 0.0013 | –

— patent US20260077277A1, “DILUTABLE COMPOSITIONS AND PROCESSES FOR EXTRACTING AND REFINING POORLY WATER-SOLUBLE POLAR OILS FROM BIOMASS” (priority 2022, published 2026)
